The test system of assay [1] is STAT3. Nature of the assay: Western blot of MEC lysates: STAT3 phosphorylation. In kind it is cell-based, human. Conditions: Ang2 and AXT107 treatment. Here is the method:
(§1) To investigate the effects of the integrin inhibitor AXT107 on Tie2 signaling, confluent monolayers of microvascular endothelial cells (MECs) on fibronectin-coated dishes were treated with various concentrations of AXT107 followed by exposure to the Tie2 ligands Ang1 or Ang2.
(§2) Human dermal microvascular endothelial cells (Lonza) were maintained at 37° C. and 5% CO2 in EBM-2MV medium (Lonza) and used between passages two through seven. Where applicable, cells were serum starved in EBM-2 medium (Lonza) with no supplements. For FITC-Dextran permeability assays phenol red-free media were used to avoid auto-fluorescence. […]
(§3) For Ang1/2 signaling investigations, cell culture dishes (10 cm diameter) were coated with 5 μg/ml fibronectin (FN1; Sigma-Aldrich, St. Louis, Mo.) for two hours at 37° C. […] Specific proteins were identified by Western blot, using the following primary antibodies: Cell Signaling—phospho-Tie2 (Y992) (Cat #: 4221), Tie2 (Cat #: 7403), phospho-Stat3 (Y705) (Cat #: 4113), Stat3 (Cat #: 4904), phospho-Akt (S473) (Cat #: 4058), Akt (Cat #: 9272), phospho-p44/42 MAPK (T202/Y204) (Cat #: 4370), p44/42 MAPK (Cat #: 4695); BD Transduction Laboratories—β1 integrin (Cat #: 610467); Millipore—α5 integrin (Cat #: AB1928) and detected with HRP-conjugated goat anti-rabbit and sheep anti-mouse secondary antibodies (GE healthcare).

The test system of assay [2] is Akt. The assay can be described thus: Western blot of MEC lysates: Akt phosphorylation. Conditions: Ang2 and AXT107 treatment. The assay is classed as cell-based, human. As for the experimental part: as §1, §2, §3
Assay [3] deals with MEC monolayers. The assay can be described thus: FITC Transwell permeability assay. The assay is classed as cell-based, human. Here is the method:
The integrity of these junctions is also important for the regulation of monolayer permeability by controlling the size of intercellular openings. The effect of the AXT107 on EC permeability was further investigated by the transendothelial diffusion of FITC-labeled dextran across MEC monolayers seeded onto permeable Transwell® substrates.
Human dermal microvascular endothelial cells (Lonza) were maintained at 37° C. and 5% CO2 in EBM-2MV medium (Lonza) and used between passages two through seven. Where applicable, cells were serum starved in EBM-2 medium (Lonza) with no supplements. For FITC-Dextran permeability assays phenol red-free media were used to avoid auto-fluorescence. AXT107 were manufactured at New England Peptide by […], lyophilized, and dissolved in 100% DMSO.
Transwell, twenty-four-well inserts (Corning) were coated with 7.5 μg/cm^2 FN1 for two hours at 37° C., aspirated, and then dried for thirty minutes at room temperature. Wells were then seeded with 7.5×10^4 MECs in 100 μl of EBM-2 media (without phenol red) and allowed to settle for thirty minutes at room temperature. 1 ml of EGM-2 media was then added to the bottom chamber and an additional 200 μl to the top chamber. The plate was incubated for twenty-four hours at 37° C. after which the media was aspirated and an additional 7.5×10^4 MECs were plated in each well as described above. After forty-eight hours at 37° C., the media was aspirated from both chambers and the cells were washed twice in dPBS containing Ca^2+ and Mg^2+, once with EBM-2 media (without phenol red) and serum starved in EBM-2 media applied to both chambers for two hours at 37° C. After this incubation, 100 μM AXT107 or an equivalent amount of DMSO vehicle was added and incubated for an additional ninety minutes. In the top chamber, the cells were then treated with 200 ng/ml Ang2, 100 ng/ml VEGFA, both, or PBS control and in the bottom chamber, the cells were then treated with 25 μg/ml FITC-Dextran (40 kDa MW). AXT107 was also added in both chambers to maintain a concentration of 100 μM. After three hours, 10 μl was removed from the top chamber of each well and mixed with 90 μl of water in a clear bottom, 96-well plate. Fluorescence values for each sample were calculated using a Perkin Elmer plate reader.

In assay [4] the target is integrin α5β1 (Homo sapiens, UniProt P05556+P08648). Conditions: Lee et al. 2014; Lima et al. 2017; cited from earlier work.
integrin α5β1, sequence (P08648 42-1049): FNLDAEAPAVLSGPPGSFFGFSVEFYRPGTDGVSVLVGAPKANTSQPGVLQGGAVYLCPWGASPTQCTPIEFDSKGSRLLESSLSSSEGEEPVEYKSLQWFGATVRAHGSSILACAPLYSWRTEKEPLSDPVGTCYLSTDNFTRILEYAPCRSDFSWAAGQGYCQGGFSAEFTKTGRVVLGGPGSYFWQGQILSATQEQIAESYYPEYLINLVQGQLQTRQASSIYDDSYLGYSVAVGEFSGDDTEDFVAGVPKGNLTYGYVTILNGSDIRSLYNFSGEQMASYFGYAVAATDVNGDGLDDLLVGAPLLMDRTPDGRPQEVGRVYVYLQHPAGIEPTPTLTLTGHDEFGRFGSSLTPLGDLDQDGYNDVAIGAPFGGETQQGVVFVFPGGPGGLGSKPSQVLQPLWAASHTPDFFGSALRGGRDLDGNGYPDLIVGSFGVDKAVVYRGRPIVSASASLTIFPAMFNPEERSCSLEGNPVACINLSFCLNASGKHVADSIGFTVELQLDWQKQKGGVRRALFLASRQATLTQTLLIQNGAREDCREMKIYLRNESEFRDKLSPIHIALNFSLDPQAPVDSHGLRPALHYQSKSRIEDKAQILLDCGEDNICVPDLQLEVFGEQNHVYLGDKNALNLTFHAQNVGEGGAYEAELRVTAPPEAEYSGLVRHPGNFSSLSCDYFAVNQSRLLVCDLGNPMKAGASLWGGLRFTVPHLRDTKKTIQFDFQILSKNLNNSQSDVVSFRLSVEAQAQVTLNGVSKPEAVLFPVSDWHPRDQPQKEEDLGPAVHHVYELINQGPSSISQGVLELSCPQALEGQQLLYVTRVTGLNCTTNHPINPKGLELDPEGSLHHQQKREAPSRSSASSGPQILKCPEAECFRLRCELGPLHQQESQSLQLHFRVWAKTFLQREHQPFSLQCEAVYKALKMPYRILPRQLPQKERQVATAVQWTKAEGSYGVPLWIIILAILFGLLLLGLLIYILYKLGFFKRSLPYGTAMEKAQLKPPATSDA
integrin α5β1, sequence (P05556 21-798): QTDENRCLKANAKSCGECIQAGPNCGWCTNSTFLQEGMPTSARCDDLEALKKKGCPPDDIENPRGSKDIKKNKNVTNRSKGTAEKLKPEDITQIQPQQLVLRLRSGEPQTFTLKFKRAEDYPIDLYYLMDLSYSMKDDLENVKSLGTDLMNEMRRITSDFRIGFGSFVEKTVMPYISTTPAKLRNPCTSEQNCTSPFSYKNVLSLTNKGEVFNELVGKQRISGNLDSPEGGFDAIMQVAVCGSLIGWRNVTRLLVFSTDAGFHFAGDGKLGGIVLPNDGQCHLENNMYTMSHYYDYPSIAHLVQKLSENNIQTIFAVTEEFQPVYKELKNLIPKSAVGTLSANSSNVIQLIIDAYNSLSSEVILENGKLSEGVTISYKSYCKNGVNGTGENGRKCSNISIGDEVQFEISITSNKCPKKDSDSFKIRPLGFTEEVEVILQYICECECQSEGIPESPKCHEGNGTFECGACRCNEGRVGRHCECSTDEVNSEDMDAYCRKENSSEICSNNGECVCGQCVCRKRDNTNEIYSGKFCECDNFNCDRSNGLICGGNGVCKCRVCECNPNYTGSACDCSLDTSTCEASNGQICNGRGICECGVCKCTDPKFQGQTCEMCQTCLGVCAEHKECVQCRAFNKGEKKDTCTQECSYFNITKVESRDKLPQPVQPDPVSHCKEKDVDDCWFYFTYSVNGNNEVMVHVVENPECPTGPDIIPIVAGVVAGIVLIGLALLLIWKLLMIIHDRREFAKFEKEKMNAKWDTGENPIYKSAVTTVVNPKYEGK
In assay [5] the test system is VEGFR2, cMet, PDGFRβ, and IGF1R. As to conditions: VEGFR2, c-Met, literature; cited from earlier work.

On to LRRFSTAPFAFIDINDVINF [AXT107], for which the STAT3 phosphorylation result in assay [1] is “also increased”. Also, the Akt phosphorylation entry in assay [2] is “also increased”. Moreover, the “FITC-dextran diffusion into the top chamber” value in assay [3] (100 μM AXT107 pre-incubation + Ang2, vs growth factor alone) is “significant decrease in FITC-dextran diffusion into the top chamber”; in assay [3] (100 μM AXT107 pre-incubation + Ang2 in combination with VEGF, vs growth factors alone), “significant decrease in FITC-dextran diffusion into the top chamber”; in assay [3] (VEGF in the presence vs absence of peptide), “similar, but non-significant trend”. The “FITC-dextran diffusion across the monolayer, agent alone” value in assay [3] (single agent alone, FITC-Dextran 40 kDa, three hours) is “influenced FITC-dextran diffusion across the monolayer”. Moreover, the “Binding to integrin α5β1” value in assay [4] was “binds tightly”. In addition, the “Receptor phosphorylation and downstream signals of RTKs” value in assay [5] is “significantly decreases receptor phosphorylation and downstream signals”.

The values are drawn from patent US11674959B2, “Methods for identifying and preparing pharmaceutical agents for activating Tie1 and/or Tie2 receptors” (The Johns Hopkins University, priority 2017, dated 2023).
